Drawing on article PMC2831033, “Characterization of a molecular switch system that regulates gene expression in mammalian cells through a small molecule” (2010), this text covers EC50 for 1 substance.

Assay [1] deals with T1, retinoid X receptor wild type (RXRwt) (Homo sapiens, UniProt P19793).
T1 construct: gene RXRA; full length RXRwt
The experiment in a line: luciferase reporter (CRBPII response element) activation in transfected HEK293T cells. The class given is cell-based.

The target in assay [2] is T2, RXR variant Q275C;I310M;F313I (QCIMFI) (Homo sapiens, UniProt P19793, Q275C/I310M/F313I).
T2 construct: gene RXRA; RXR variant LBD with RXR DBD (QCIMFI)
T2 sequence (P19793 1-462 Q275C/I310M/F313I): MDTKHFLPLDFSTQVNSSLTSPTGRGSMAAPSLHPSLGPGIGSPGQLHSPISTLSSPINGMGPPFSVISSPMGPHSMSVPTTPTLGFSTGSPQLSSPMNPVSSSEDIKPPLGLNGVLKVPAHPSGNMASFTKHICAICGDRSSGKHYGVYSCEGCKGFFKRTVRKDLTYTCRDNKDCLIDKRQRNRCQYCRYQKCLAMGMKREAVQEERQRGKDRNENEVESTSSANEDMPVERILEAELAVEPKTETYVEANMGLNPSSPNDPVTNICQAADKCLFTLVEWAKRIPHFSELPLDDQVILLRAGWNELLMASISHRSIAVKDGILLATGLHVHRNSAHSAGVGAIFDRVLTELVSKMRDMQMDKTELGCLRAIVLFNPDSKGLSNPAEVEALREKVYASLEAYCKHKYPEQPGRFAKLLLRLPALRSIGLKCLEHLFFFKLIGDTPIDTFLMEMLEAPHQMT
Kind of assay: luciferase reporter activation in transfected HEK293T cells. The class given is cell-based.

T1 sequence (P19793 whole entry): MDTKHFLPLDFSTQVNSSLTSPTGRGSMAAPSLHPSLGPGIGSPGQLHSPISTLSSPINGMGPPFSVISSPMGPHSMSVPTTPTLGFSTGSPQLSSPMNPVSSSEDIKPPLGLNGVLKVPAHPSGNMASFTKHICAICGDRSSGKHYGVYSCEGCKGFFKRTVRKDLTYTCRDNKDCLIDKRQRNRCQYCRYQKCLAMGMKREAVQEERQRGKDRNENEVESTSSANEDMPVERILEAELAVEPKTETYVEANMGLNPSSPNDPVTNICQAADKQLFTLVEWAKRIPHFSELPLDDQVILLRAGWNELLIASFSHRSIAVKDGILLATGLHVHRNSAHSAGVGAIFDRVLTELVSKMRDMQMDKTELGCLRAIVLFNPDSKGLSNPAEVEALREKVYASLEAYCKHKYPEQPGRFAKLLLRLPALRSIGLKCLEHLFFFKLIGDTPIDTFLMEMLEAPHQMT

With LG335, the EC50 in assay [1] came out at 338 nM; in assay [2], 38 nM.
